Measurements reported in PubChem BioAssay (NCI).
Where “and” joins values, the source holds several entries; their conditions need not be identical. Identical values can stand only once.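 A five-concentration, 48-hour dose response in 96-well plates underlies each endpoint, interpolated linearly between surrounding concentrations. GI50: concentration for 50% inhibition of growth. TGI marks complete inhibition of growth.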 Where a SMILES comes first, the peptide text is derived from it. Bridges are numbered along the chain shown (N, C = ends). [ ]: non-standard residue; d: D form. ξ: configuration not given here. ξThr(3R) = C[C@@H](O)C(N)C(=O)O; S5 = C=CCCC[C@](C)(N)C(=O)O

What was measured:
Test in all cases: inhibition of tumour cell growth, NCI panel, 48 h
UACC-257 melanoma = test system: UACC-257 melanoma
HOP-92 NSCLC = test system: HOP-92 NSCLC
SNB-19 CNS = test system: SNB-19 CNS
K-562 leukemia = test system: K-562 leukemia
TK-10 renal = test system: TK-10 renal
COLO 205 colon = test system: COLO 205 colon
MCF7 breast = test system: MCF7 breast
786-0 renal = test system: 786-0 renal
SK-OV-3 ovarian = test system: SK-OV-3 ovarian
UACC-62 melanoma = test system: UACC-62 melanoma

SMILES	GI50 (UACC-257 melanoma) [µM]	TGI (UACC-257 melanoma) [µM]	GI50 (HOP-92 NSCLC) [µM]	TGI (HOP-92 NSCLC) [µM]	GI50 (SNB-19 CNS) [µM]	TGI (SNB-19 CNS) [µM]	GI50 (K-562 leukemia) [µM]	TGI (K-562 leukemia)	GI50 (TK-10 renal) [µM]	TGI (TK-10 renal)	GI50 (COLO 205 colon) [µM]	TGI (COLO 205 colon) [µM]	GI50 (MCF7 breast) [µM]	TGI (MCF7 breast)	GI50 (786-0 renal) [µM]	TGI (786-0 renal) [µM]	GI50 (SK-OV-3 ovarian) [µM]	TGI (SK-OV-3 ovarian) [µM]	GI50 (UACC-62 melanoma) [µM]	TGI (UACC-62 melanoma)
C/C(=N/O)c1ccc2c(c1)/C(=N/O)c1ccccc1-2	29.4	65.5	27.8	60	33.8	> 100	15.8	32.4 µM	26.7	67.2 µM	18.1	35.6	15.3	35.8 µM	20.5	38.5	35.7	> 100	18.3	37.5 µM
COc1cc(/C=C/C(=O)N2CCC=CC2=O)cc(OC)c1OC	2.23	5.37	2.29	4.61	5.55	20.6	2.98	> 100 µM	2.99	6.76 µM	1.93	4.14	2.36	13.9 µM	2.41	7.03	13.8	27.3	1.85	3.82 µM
O=C(/C=C/C(Cl)(Cl)Cl)Nc1ccc(Cl)cc1		35.7		4.08		32				5.73 µM		5.16		34.3 µM		2.96		34.6		21.2 µM
COC(=O)C1C(=O)O[C@@H](c2ccc(OC)c(OC)c2OC)C1C(=O)OC (mixture of isomers)		> 100		> 100		> 100		> 100 µM		> 100 µM		> 100				> 100		> 100		> 100 µM
CCCCCCCCCCCCCCCCCCOc1ccccc1CC(=O)OCC[N+](CC)(CC)CC	1.42	5.1	1.1	3.52	1.52	5.6	1.5	50 µM	1.45	7.65 µM			1.35	5.25 µM	1.64	7.54	3	12.1	1.16	3.37 µM
CCCCCCCCCCSC(=O)NC		85		57.8		> 100		67.7 µM		> 100 µM		> 100				> 100		> 100		> 100 µM
COc1ccc(-c2ccccc2)c2[nH]c3c(c12)CCNC3=O		> 100		> 100		> 100		> 100 µM		> 100 µM		> 100				> 100				> 100 µM
N#Cc1ccccc1C#C/C=C\C#CC#C/C=C\C#Cc1ccccc1C#N	52.7	> 100	10.4	> 100	7.27	> 100			23.9	83 µM	7.33	21.1	47.4	> 100 µM	16.6	42.1	28.6	> 100	14.7	40.6 µM
CC(=O)[CH-]C(=O)c1ccccc1.CC(=O)[CH-]C(=O)c1ccccc1.CC(C)CCC[C@H](C)C1CCC2[C@@H]3CC=C4C[C@@H]([O-])CC[C@]4(C)C3CC[C@@]21C.CC(C)CCC[C@H](C)C1CCC2[C@@H]3CC=C4C[C@@H]([O-])CC[C@]4(C)C3CC[C@@]21C.Cl.[Ti+4] (stereo not given in full)	> 25	> 25			> 25	> 25	> 25	> 25 µM	> 25	> 25 µM	> 25	> 25			> 25	> 25	> 25	> 25	> 25	> 25 µM
CN(NC1OC(CO)C(O)C(O)C1O)c1ccccc1 (stereo not given)		> 100		> 100		> 100		> 100 µM		> 100 µM		> 100				> 100				> 100 µM
CC(=O)OC(C)(C)/C=C/C(=O)[C@](C)(O)[C@H]1[C@H](O)C[C@@]2(C)[C@@H]3CC=C4[C@@H](C=C(O)C(=O)C4(C)C)[C@]3(C)C(=O)C[C@]12C								4.97 µM and 9.17 µM and 14 µM		0.15 µM and 0.204 µM				3.6 µM and 1.77 µM and 1.86 µM	0.0154					1.56 µM and 0.806 µM and 1.17 µM
O=C(CO[N+](=O)[O-])OC/C=C/c1ccccc1		> 100		> 100		> 100		> 100 µM		> 100 µM		> 100				> 100		> 100		
C=C1C(=O)O[C@H]2[C@H]1CC/C(Cn1cc(-c3cccc(Cl)c3)nn1)=C\CC[C@@]1(C)O[C@@H]21	1.42	2.8	0.257	0.842	2.4	6.45	0.405	2.44 µM	0.992	2.15 µM	0.417	1.69			0.506	1.87	3.67	11.2	0.625	2.08 µM
CN(C)CCn1cnc2ncccc2c1=O				> 100		> 100		> 100 µM		> 100 µM		> 100				> 100		> 100		> 100 µM
O=c1c2ccccc2nc(-c2ccccc2Cl)n1-c1nnc(C(F)(F)F)s1			0.514	3.43	3.66	> 100	3.77	> 100 µM	3.99	24 µM	3.86	21.3	3.03	> 100 µM	3.18	11.4	4.01	39	2.85	14.4 µM
CC1CCC(=O)C(C(O)CC2CC(=O)N(c3ccccc3)C(=O)C2)C1 (stereo not given)		> 100		> 100		> 100		> 100 µM		> 100 µM		> 100				> 100		> 100		> 100 µM
O=C(CCl)Nc1cc(Cl)c(Cl)cc1Cl		3.24				4.43		> 10 µM		3.27 µM		3.35		3.6 µM		2.87		> 10		3.59 µM
COC1OC(CBr)C(OC(=O)c2ccccc2)C(OS(=O)(=O)c2ccc(C)cc2)C1Br (stereo not given)		> 100		> 100		> 100		> 100 µM		> 100 µM		> 100				> 100				

SMILES	GI50 (UACC-257 melanoma) [µM]	TGI (UACC-257 melanoma) [µM]	GI50 (HOP-92 NSCLC) [µM]	TGI (HOP-92 NSCLC) [µM]	GI50 (SNB-19 CNS) [µM]	TGI (SNB-19 CNS) [µM]	GI50 (K-562 leukemia) [µM]	TGI (K-562 leukemia)	GI50 (TK-10 renal) [µM]	TGI (TK-10 renal)	GI50 (COLO 205 colon) [µM]	TGI (COLO 205 colon) [µM]	GI50 (MCF7 breast) [µM]	TGI (MCF7 breast)	GI50 (786-0 renal) [µM]	TGI (786-0 renal) [µM]	GI50 (SK-OV-3 ovarian) [µM]	TGI (SK-OV-3 ovarian) [µM]	GI50 (UACC-62 melanoma) [µM]	TGI (UACC-62 melanoma)
CC(=O)Nc1ccc(/C=C2\N=C(c3ccccc3)OC2=O)cc1		> 100		> 100		> 100		> 100 µM		> 100 µM		> 100				> 100		> 100		> 60.1 µM
CN(C)C(=O)NC(=S)N(C)C		> 100		> 100		> 100		> 100 µM		> 100 µM						> 100		> 100		> 100 µM
C[C@H](CS)C(=O)N1c2ccccc2C[C@H]1C(=O)O		> 100				> 100		> 100 µM		> 100 µM		> 100		> 100 µM		> 100		> 100		> 100 µM
CC(=O)N[C@H](C(=O)N[C@@H](CCCNC(=N)N)C(=O)N[C@@H](CCCCN)C(=O)N[C@@H](CCCNC(=N)N)C(=O)NC(C(=O)N[C@@H](CC(C)C)C(=O)N[C@@H](CCCNC(=N)N)C(=O)N[C@@]1(C)CCC/C=C\CCC[C@@](C)(C(=O)N[C@@H](CCCNC(=N)N)C(=O)N[C@@H](CCC(=O)O)C(=O)N[C@@H](CC(C)C)C(=O)N[C@H](C(=O)N[C@@H](CCC(=O)O)C(N)=O)C(C)C)NC(=O)[C@H](CCC(N)=O)NC(=O)[C@H](CC(C)C)NC(=O)[C@H](CC(C)C)NC1=O)[C@@H](C)O)C(C)C (stereo partly drawn) (Ac-VRKR[ξThr(3R)]LR[S5]LLQ[S5]RELVE-NH2; staple (Z) 8-12)			2.45	8.89	7.94	17.9	9.12	19.7 µM	1.33	4.38 µM	2.41	9.89	3.41	11.7 µM	4.2	12.6	5.55	14.9	1.13	2.81 µM
O=C1C2c3[nH]c4ccccc4c3C3CCCCCC3C2C(=O)N1c1ccccc1 (stereo not given)		84.6		74.7		> 74.1		> 100 µM		> 100 µM		> 100				> 100		34.1		> 100 µM
O=Cc1c(-c2ccccc2)[nH]c2ccccc2c1=O		> 100		> 100		> 100				> 100 µM		82.3		> 100 µM		> 100		> 100		> 100 µM
CCN(CC)CCN1C(=O)C2C3C(=O)CC(C)(CC3C)C2C1=O (stereo not given)	> 100	> 100	> 100	> 100	> 100	> 100	> 100	> 100 µM	> 100	> 100 µM	> 100	> 100			> 100	> 100	> 100	> 100	> 100	> 100 µM
CCCCCCCCCC(CCCC(O)CC(=O)O)OC1OC(COC2OC(C)C(OC(C)=O)C(O)C2O)C(O)C(O)C1OC1OC(CO)C(O)C(O)C1OC1OC(C)C(OC(=O)CC(C)C)C(O)C1O (stereo not given)	> 35	> 35			> 35	> 35	> 35	> 35 µM	> 35	> 35 µM	> 35	> 35	> 35	> 35 µM	> 35	> 35	> 35	> 35	> 35	> 35 µM
CCOc1ccc(OCC)c([P+](c2ccccc2)(c2ccccc2)c2ccccc2)c1		3.8		0.95		12.7		17 µM		12 µM		1.31				15.6				14.8 µM
CC(=O)OCC1OC(OCc2ccccc2)C(Br)C(OC(C)=O)C1OC(C)=O (stereo not given)		> 100		> 100		> 100		> 100 µM		> 100 µM		> 100				> 100				> 100 µM
CC1=C(C(=O)NCc2ccccc2)C(c2ccccc2C)C(C(=O)NCc2ccccc2)=C(C)N1		> 76.4		> 86.8		> 100		> 100 µM		99.6 µM		> 100				67		> 100		38.8 µM
O=C1c2cccnc2C(=O)c2c1c(C(=O)NCCn1ccnc1)c1ccccn21	2.06	3.93	9.28	31.7	2.22	11.9	4.39	> 100 µM			1.48	3.17	1.19	3.37 µM	5.47	37.6	8.88	21.3	1.84	4.4 µM
Cc1cc(=O)n(-c2c(C)cccc2Cl)c(/C=C(\O)c2ccncc2)n1		> 100		> 100		> 100		> 100 µM		> 100 µM		> 100				> 100		> 100		> 100 µM
COc1ccc(S(=O)(=O)N[C@H](C(=O)O)c2ccccc2)cc1		> 100				> 100		> 100 µM		> 100 µM		> 100				> 100		> 100		> 100 µM
O=C(N/C(=C\c1ccccc1Cl)c1nc2ccccc2[nH]1)c1ccccc1				34.1		> 100		> 100 µM		> 100 µM		> 100				> 100		> 100		> 100 µM
COC(=O)C1(C)CC2C(C)(CCC3(C)C4=CC=C5C(=CC(=O)C(O)=C5C)C4(C)CCC23C)CC1O (stereo not given)		4.28		2.82		2.81				1.59 µM		1.72		2.86 µM		0.477		4.13		2.32 µM
CCOC(=O)C(NO)C(Sc1ccccc1)c1ccc(OC)cc1 (stereo not given)		> 100		> 100		> 100				> 100 µM		> 100				> 100		> 100		> 100 µM
